Results taken from US10376481B2, “Compounds and methods for inhibiting NHE-mediated antiport in the treatment of disorders associated with fluid retention or salt overload and gastrointestinal tract disorders” (ARDELYX, INC, priority 2012, dated 2019).

Key:
human NHE3 [1] = target: T1, human NHE3 (Homo sapiens, UniProt P48764); assay: Cell-based assay of NHE-3 activity (persistent inhibition), human; settings: PS120 fibroblasts stably expressing human NHE3, 60 min incubation then washout; for IC50: read-out: pIC50 (human Persistence assay) (converted)
T1 sequence (P48764 26-834): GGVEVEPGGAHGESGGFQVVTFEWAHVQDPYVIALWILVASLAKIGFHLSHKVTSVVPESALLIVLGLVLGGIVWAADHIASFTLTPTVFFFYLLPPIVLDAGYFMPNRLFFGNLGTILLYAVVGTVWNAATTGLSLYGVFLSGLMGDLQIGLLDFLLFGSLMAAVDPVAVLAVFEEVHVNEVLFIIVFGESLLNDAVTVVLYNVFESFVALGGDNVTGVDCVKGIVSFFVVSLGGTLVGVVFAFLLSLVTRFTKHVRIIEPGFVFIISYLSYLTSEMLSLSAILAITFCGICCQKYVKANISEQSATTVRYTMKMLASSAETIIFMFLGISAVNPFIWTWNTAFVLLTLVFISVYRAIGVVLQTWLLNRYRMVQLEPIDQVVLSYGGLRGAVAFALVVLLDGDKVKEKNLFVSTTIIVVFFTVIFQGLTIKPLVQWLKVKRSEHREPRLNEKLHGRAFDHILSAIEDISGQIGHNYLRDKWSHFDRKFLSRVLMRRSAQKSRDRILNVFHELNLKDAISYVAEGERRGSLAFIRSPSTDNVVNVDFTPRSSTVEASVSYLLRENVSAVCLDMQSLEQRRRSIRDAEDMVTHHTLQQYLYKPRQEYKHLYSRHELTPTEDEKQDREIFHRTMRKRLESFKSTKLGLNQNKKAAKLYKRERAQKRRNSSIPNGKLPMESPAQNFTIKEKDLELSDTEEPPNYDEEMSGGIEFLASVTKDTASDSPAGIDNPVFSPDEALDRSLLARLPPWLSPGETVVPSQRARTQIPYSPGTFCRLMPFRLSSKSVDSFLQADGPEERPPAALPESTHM
Procedure: The ability of compounds to inhibit human and rat NHE-3-mediated Na^+-dependent H^+ antiport after application and washout was measured using a modification of the pH sensitive dye method described above. PS120 fibroblasts stably expressing human NHE3 were obtained from Mark Donowitz (Baltimore, Md.). Opossum kidney (OK) cells were obtained from the ATCC and propagated per their instructions. The rat NHE-3 gene was introduced into OK cells via electroporation, and cells were seeded into 96 well plates and grown overnight. Medium was aspirated from the wells, cells were washed once with NaCl-HEPES buffer (100 mM NaCl, 50 mM HEPES, 10 mM glucose, 5 mM KCl, 2 mM CaCl2, 1 mM MgCl2, pH 7.4), then overlayed with NaCl-HEPES buffer containing 0-30 μM test compound. After a 60 min incubation at room temperature, the test drug containing buffer was aspirated from the cells. Following aspiration, cells were washed once with NaCl-HEPES buffer without drug, then incubated for 30 min at 37° C. with NH4Cl-HEPES buffer (20 mM NH4Cl, 80 mM NaCl, 50 mM HEPES, 5 mM KCl, 2 mM CaCl2, 1 mM MgCl2, pH 7.4) containing 5 μM BCECF-AM. Cells were washed once with Ammonium free, Na^+-free HEPES (100 mM choline, 50 mM HEPES, 10 mM glucose, 5 mM KCl, 2 mM CaCl2, 1 mM MgCl2, pH 7.4) and incubated in the same buffer for 10 minutes at room temperature to lower intracellular pH. NHE-3-mediated recovery of neutral intracellular pH was initiated (10 min after compound washout) by addition of Na-HEPES buffer. […] Changes in intracellular pH were monitored using a FLIPR Tetra® (Molecular Devices, Sunnyvale, Calif.) by excitation at λex 439 to 505 nm, and measuring BCECF fluorescence at λem 538 nm. The initial rate of the fluorescence ratio change was used as a measure of NHE-mediated Na^+/H^+ activity, and reported as the change in fluorescence ratio per minute. Initial rates were plotted as the average 2 or more replicates, and pIC50 values were estimated using GraphPad Prism.

human NHE3 [2] = target: T1, human NHE3; assay: Cell-based assay of NHE-3 activity (human NHE3 inhibition assay); design: expressed in transfected cells; host or cells: Opossum kidney (OK) cells (ATCC), electroporated; settings: OK cells with human NHE-3 gene, BCECF pH recovery, 0-30 μM test compound; read-out: Human NHE3 pIC50 (converted)
Procedure: Rat or human NHE-3-mediated Na^+-dependent H^+ antiport was measured using a modification of the pH sensitive dye method originally reported by Paradiso (Proc. Natl. Acad. Sci. USA. (1984) 81(23): 7436-7440). Opossum kidney (OK) cells were obtained from the ATCC and propagated per their instructions. The rat NHE-3 gene (GenBank M85300) or the human NHE-3 gene (GenBank NM_004174.1) was introduced into OK cells via electroporation, and cells were seeded into 96 well plates and grown overnight. Medium was aspirated from the wells, cells were washed twice with NaCl-HEPES buffer (100 mM NaCl, 50 mM HEPES, 10 mM glucose, 5 mM KCl, 2 mM CaCl2, 1 mM MgCl2, pH 7.4), then incubated for 30 min at room temperature with NH4Cl-HEPES buffer (20 mM NH4Cl, 80 mM NaCl, 50 mM HEPES, 5 mM KCl, 2 mM CaCl2, 1 mM MgCl2, pH 7.4) containing 5 μM bis(acetoxymethyl) 3,3′-(3′,6′-bis(acetoxymethoxy)-5-((acetoxymethoxy)carbonyl)-3-oxo-3H-spiro[isobenzofuran-1,9′-xanthene]-2′,7′-diyl)dipropanoate (BCECF-AM). Cells were washed twice with Ammonium free, Na^+-free HEPES (100 mM choline, 50 mM HEPES, 10 mM glucose, 5 mM KCl, 2 mM CaCl2, 1 mM MgCl2, pH 7.4) and incubated in the same buffer for 10 minutes at room temperature to lower intracellular pH. […] Initial rates were plotted as the average 2 or more replicates, and pIC50 values were estimated using GraphPad Prism.

Structure (SMILES)	% inhibition (human Persistence assay) (human NHE3 [1])	IC50 (human NHE3 [1]) [µM]	IC50 (human NHE3 [2]) [µM]
CN(C)[C@H]1Cc2c(Cl)cc(Cl)cc2[C@@H]1Oc1ccc(S(=O)(=O)NCCOCCOCCNC(=O)NCCCCNC(=O)NCCOCCOCCNS(=O)(=O)c2ccc(O[C@H]3c4cc(Cl)cc(Cl)c4C[C@@H]3N(C)C)cc2)cc1 [Example 1, (S,S)—N,N′-(10,17-dioxo-3,6,21,24-tetraoxa-9,11,16,18-tetraazahexacosane-1,26-diyl)bis(4-((1S,2S)-4,6-dichloro-2-(dimethylamino)-2,3-dihydro-1H-inden-1-yloxy)benzenesulfonamide)]	C (>70%)	< 0.1	< 0.1
N[C@@H]1CCCN([C@H]2Cc3c(Cl)cc(Cl)cc3[C@@H]2Oc2ccc(S(=O)(=O)NCCOCCOCCNC(=O)NCCCCNC(=O)NCCOCCOCCNS(=O)(=O)c3ccc(O[C@H]4c5cc(Cl)cc(Cl)c5C[C@@H]4N4CCC[C@@H](N)C4)cc3)cc2)C1 [Example 3, (S,S,R)—N,N′-(10,17-dioxo-3,6,21,24-tetraoxa-9,11,16,18-tetraazahexacosane-1,26-diyl)bis(4-((1S,2S)-2-((R)-3-aminopiperidin-1-yl)-4,6-dichloro-2,3-dihydro-1H-inden-1-yloxy)benzenesulfonamide)]	C (>70%)	< 0.1	< 0.1
O=C(NCCCCNC(=O)NCCOCCOCCNS(=O)(=O)c1ccc(O[C@H]2c3cc(Cl)cc(F)c3C[C@@H]2N2CC[C@@H](O)C2)cc1)NCCOCCOCCNS(=O)(=O)c1ccc(O[C@H]2c3cc(Cl)cc(F)c3C[C@@H]2N2CC[C@@H](O)C2)cc1 [Example 4, (S,S,R)—N,N′-(10,17-dioxo-3,6,21,24-tetraoxa-9,11,16,18-tetraazahexacosane-1,26-diyl)bis(4-((1S,2S)-6-chloro-4-fluoro-2-((R)-3-hydroxypyrrolidin-1-yl)-2,3-dihydro-1H-inden-1-yloxy)benzenesulfonamide)]	B (40-70%)	< 0.1	< 0.1
CN(C)[C@H]1Cc2c(Cl)cc(Cl)cc2[C@@H]1Oc1ccc(S(=O)(=O)NCCOCCOCCNC(=O)[C@H](O)[C@@H](O)C(=O)NCCOCCOCCNS(=O)(=O)c2ccc(O[C@H]3c4cc(Cl)cc(Cl)c4C[C@@H]3N(C)C)cc2)cc1 [Example 5, (2R,3R)—N1,N4-bis(2-(2-(2-(4-((1S,2S)-4,6-dichloro-2-(dimethylamino)-2,3-dihydro-1H-inden-1-yloxy)phenylsulfonamido)ethoxy)ethoxy)ethyl)-2,3-dihydroxysuccinamide]	C (>70%)	0.1 to 1	< 0.1
CN(C)[C@H]1Cc2c(Cl)cc(Cl)cc2[C@@H]1Oc1ccc(S(=O)(=O)NCCOCCOCCNC(=O)COCC(=O)NCCOCCOCCNS(=O)(=O)c2ccc(O[C@H]3c4cc(Cl)cc(Cl)c4C[C@@H]3N(C)C)cc2)cc1 [Example 9, 2,2′-oxybis(N-(2-(2-(2-(4-((1S,2S)-4,6-dichloro-2-(dimethylamino)-2,3-dihydro-1H-inden-1-yloxy)phenylsulfonamido)ethoxy)ethoxy)ethyl)acetamide)]	C (>70%)	0.1 to 1	< 0.1
CN(C)[C@H]1Cc2c(Cl)cc(Cl)cc2[C@@H]1Oc1ccc(S(=O)(=O)NCCOCCOCCNC(=O)CCC(C)(N)CCC(=O)NCCOCCOCCNS(=O)(=O)c2ccc(O[C@H]3c4cc(Cl)cc(Cl)c4C[C@@H]3N(C)C)cc2)cc1 [Example 11, 4-amino-N1,N7-bis(2-(2-(2-(4-((1S,2S)-4,6-dichloro-2-(dimethylamino)-2,3-dihydro-1H-inden-1-yloxy)phenylsulfonamido)ethoxy)ethoxy)ethyl)-4-methylheptanediamide]	B (40-70%)	< 0.1	< 0.1
O=C(NCCCCNC(=O)NCCOCCOCCNC(=O)Nc1cccc(O[C@H]2c3ccccc3C[C@@H]2N2CCCCC2)c1)NCCOCCOCCNC(=O)Nc1cccc(O[C@H]2c3ccccc3C[C@@H]2N2CCCCC2)c1 [Example 13, 1-{2-[2-(2-{[(3-{[(1S,2S)-2-(piperidin-1-yl)-2,3-dihydro-1H-inden-1-yl]oxy}phenyl)carbamoyl]amino}ethoxy)ethoxy]ethyl}-3-{4-[({2-[2-(2-{[(3-{[(1S,2S)-2-(piperidin-1-yl)-2,3-dihydro-1H-inden-1-yl]oxy}phenyl)carbamoyl]amino}ethoxy)ethoxy]ethyl}carbamoyl)amino]butyl}urea]	A (NHE3 <40%)	> 1	0.1 to 10
O=C(NCCCCNC(=O)NCCOCCOCCNS(=O)(=O)c1ccc(O[C@H]2c3ccccc3C[C@@H]2N2CCCCC2)cc1)NCCOCCOCCNS(=O)(=O)c1ccc(O[C@H]2c3ccccc3C[C@@H]2N2CCCCC2)cc1 [Example 14]	C (>70%)	> 1	< 0.1
O=C(NCCCCNC(=O)NCCOCCOCCNS(=O)(=O)c1ccc(O[C@H]2c3cc(Cl)cc(Cl)c3C[C@@H]2N2CCCCC2)cc1)NCCOCCOCCNS(=O)(=O)c1ccc(O[C@H]2c3cc(Cl)cc(Cl)c3C[C@@H]2N2CCCCC2)cc1 [Example 15]	C (>70%)	> 1	> 10
O=C(NCCCCNC(=O)NCCOCCOCCOCCNS(=O)(=O)c1ccc(O[C@H]2c3ccccc3C[C@@H]2N2CCCCC2)cc1)NCCOCCOCCOCCNS(=O)(=O)c1ccc(O[C@H]2c3ccccc3C[C@@H]2N2CCCCC2)cc1 [Example 16]	B (40-70%)	> 1	< 0.1
CN(C)[C@H]1Cc2ccccc2[C@@H]1Oc1ccc(S(=O)(=O)NCCOCCOCCNC(=O)NCCCCNC(=O)NCCOCCOCCNS(=O)(=O)c2ccc(O[C@H]3c4ccccc4C[C@@H]3N(C)C)cc2)cc1 [Example 20]	B (40-70%)	< 0.1	< 0.1
CN(C)[C@H]1Cc2ccc(Cl)cc2[C@@H]1Oc1ccc(S(=O)(=O)NCCOCCOCCNC(=O)NCCCCNC(=O)NCCOCCOCCNS(=O)(=O)c2ccc(O[C@H]3c4cc(Cl)ccc4C[C@@H]3N(C)C)cc2)cc1 [Example 21]	C (>70%)	< 0.1	< 0.1
